{"source": "paper PMC6112376", "about": "“Comprehensive Analyses and Prioritization of Tox21 10K Chemicals Affecting Mitochondrial Function by in-Depth Mechanistic Studies” (Environmental Health Perspectives, 2018)", "key": {"hNSC": {"tested_on": "hNSC", "test": "MMP assay in human neural stem cells (hNSC)", "assay_type": "cell-based", "details": "Homo sapiens, Neural stem cell; 1 h treatment; fresh re-sourced stocks; mean±SD of three experiments; read-out: hNSC IC50 (MMP)"}, "[1]": {"tested_on": "Nrf2/ARE (ARE-bla HepG2 cells)", "test": "ARE β-lactamase reporter gene assay", "assay_type": "cell-based, human", "details": "16 h incubation, mean±SD of three experiments"}, "[2]": {"tested_on": "Caenorhabditis elegans (Bristol N2)", "test": "C. elegans larval development and growth assay"}, "rat primary hepatocytes": {"tested_on": "rat primary hepatocytes", "test": "MMP assay in rat primary hepatocytes", "details": "for Rat hepatocytes (efficacy) (MMP): % of positive control, mean±SD of three experiments; for IC50: Rattus norvegicus, Hepatocyte"}, "HepG2 cells [3]": {"tested_on": "HepG2 cells", "test": "cells", "details": "Homo sapiens"}, "HepG2 cells [4]": {"tested_on": "HepG2 cells", "test": "Intracellular ATP content (cell viability) assay", "assay_type": "cell-based, human", "details": "40 h treatment, mean±SD of three experiments; for IC50: Homo sapiens, HepG2"}, "[5]": {"tested_on": "p53 (p53-bla HCT-116 cells)", "test": "p53 β-lactamase reporter gene assay", "assay_type": "cell-based, human", "details": "16 h incubation; mean±SD of three experiments"}, "[6]": {"tested_on": "HeLa cells expressing YFP-Parkin", "test": "Parkin translocation assay", "assay_type": "cell-based, human", "details": "HeLa cells stably expressing YFP-Parkin; treated for 2 h"}, "HepG2 cells [7]": {"tested_on": "HepG2 cells", "test": "ROS-Glo hydrogen peroxide (ROS) assay", "assay_type": "cell-based, human", "details": "Homo sapiens, HepG2; 2 h treatment; mean±SD of three experiments; read-out: ROS (HepG2) EC50"}, "[8]": {"tested_on": "isolated rat liver mitochondria", "test": "Oxygen consumption, Clark-type oxygen electrode", "assay_type": "biochemical"}, "[9]": {"tested_on": "Caenorhabditis elegans strain PE255", "test": "In vivo C. elegans ATP status assay"}, "HepG2 cells [10]": {"tested_on": "HepG2 cells", "details": "cited from earlier work"}, "[11]": {"details": "1 h, read-out: Rat hepatocytes IC50 (MMP)"}, "[12]": {"details": "HepG2, 1 h, read-out: HepG2 IC50 Galactose (MMP)"}, "[13]": {"details": "HepG2, 1 h, read-out: HepG2 IC50 Glucose (MMP)"}}, "note": "Read-outs that look alike come from different tables or passages of the source."}
{"smiles": "Cc1cc(Cc2cc(C)cc(C(C)(C)C)c2O)c(O)c(C(C)(C)C)c1", "note": "[2,2′-Methylenebis(4-methyl-6-tert-butylphenol)]", "values": [{"measurement": "IC50", "setting": "hNSC", "value": "0.88 ± 0.25", "unit": "µM"}, {"measurement": "ARE (HepG2) EC50", "setting": "[1]", "value": "Inactive"}, {"measurement": "LEC (lowest effect concentration), larval growth assay", "setting": "[2]; 48 h exposure", "value": "≤ 10", "unit": "µM"}, {"measurement": "Rat hepatocytes (efficacy) (MMP)", "setting": "rat primary hepatocytes", "value": "−121±16.7", "unit": "%"}, {"measurement": "IC50", "setting": "rat primary hepatocytes; [11]", "value": "6.89 ± 1.44", "unit": "µM"}, {"measurement": "IC50", "setting": "HepG2 cells [3]; [12]", "value": "6.6 ± 1.12", "unit": "µM"}, {"measurement": "IC50", "setting": "HepG2 cells [3]; [13]", "value": "5.67 ± 1.02", "unit": "µM"}, {"measurement": "IC50", "setting": "HepG2 cells [4]; 5 mM glucose, read-out: ATP (HepG2, glucose) IC50", "value": "34.1 ± 3.93", "unit": "µM"}, {"measurement": "IC50", "setting": "HepG2 cells [4]; 10 mM galactose, read-out: ATP (HepG2, galactose) IC50", "value": 34, "unit": "µM"}, {"measurement": "p53 (HCT-116) EC50", "setting": "[5]", "value": "Inactive"}, {"measurement": "Parkin recruitment", "setting": "[6]", "value": "Inactive"}, {"measurement": "EC50", "setting": "HepG2 cells [7]", "value": "31.4 ± 10.1", "unit": "µM"}]}
{"smiles": "Nc1ccc2c(c1)C(=O)c1ccccc1C2=O", "note": "[2-Aminoanthraquinone]", "values": [{"measurement": "IC50", "setting": "hNSC", "value": "1.8 ± 0.83", "unit": "µM"}, {"measurement": "EC50", "setting": "[1]; Homo sapiens, HepG2, read-out: ARE (HepG2) EC50", "value": "3.93 ± 0.89", "unit": "µM"}, {"measurement": "EXT: mean difference in nematode size relative to plate controls", "setting": "[2]; 0.5 µM", "value": 0.000738}, {"measurement": "EXT: mean difference in nematode size relative to plate controls", "setting": "[2]; 1 µM", "value": 0.7865}, {"measurement": "EXT: mean difference in nematode size relative to plate controls", "setting": "[2]; 5 µM", "value": 0.06113}, {"measurement": "EXT: mean difference in nematode size relative to plate controls", "setting": "[2]; 10 µM", "value": 0.09116}, {"measurement": "EXT: mean difference in nematode size relative to plate controls", "setting": "[2]; 25 µM", "value": 0.03934}, {"measurement": "EXT: mean difference in nematode size relative to plate controls", "setting": "[2]; 50 µM", "value": 0.4385}, {"measurement": "EXT: mean difference in nematode size relative to plate controls", "setting": "[2]; 75 µM", "value": 0.2071}, {"measurement": "EXT: mean difference in nematode size relative to plate controls", "setting": "[2]; 100 µM", "value": 0.2541}, {"measurement": "minimal effective concentration", "setting": "[2]; Caenorhabditis elegans, read-out: LEC EXT: lowest effect concentration for extinction, a measure of nematode size", "value": 100, "unit": "µM"}, {"measurement": "Rat hepatocytes (efficacy) (MMP)", "setting": "rat primary hepatocytes", "value": "−58.3±7.52", "unit": "%"}, {"measurement": "IC50", "setting": "rat primary hepatocytes; [11]", "value": "9.63 ± 3.17", "unit": "µM"}, {"measurement": "IC50", "setting": "rat primary hepatocytes; read-out: MMP assays IC50 (µM) Rat Hepatocytes", "value": "3.57 ± 2.61", "unit": "µM"}, {"measurement": "MMP assays efficacy (%) Rat Hepatocytes", "setting": "rat primary hepatocytes; rat hepatocytes, mean ± SD of three experiments", "value": "-91±30", "unit": "%"}, {"measurement": "IC50", "setting": "HepG2 cells [3]; [12]", "value": "8.98 ± 1.62", "unit": "µM"}, {"measurement": "IC50", "setting": "HepG2 cells [3]; [13]", "value": "6.58 ± 0.9", "unit": "µM"}, {"measurement": "IC50", "setting": "HepG2 cells [3]; HepG2, read-out: MMP assays IC50 (µM) HepG2", "value": 1.26, "unit": "µM"}, {"measurement": "Emax", "setting": "HepG2 cells [3]; HepG2, read-out: MMP assays efficacy (%) HepG2", "value": 85, "unit": "%"}, {"measurement": "I-ADP, % of control (O2 consumption rate)", "setting": "[8]; 100 µM, glutamate/malate driven state 3 respiration, isolated rat liver mitochondria", "value": "101 (53.8) % of control"}, {"measurement": "I-sub, % of control (O2 consumption rate)", "setting": "[8]; 100 µM, glutamate/malate driven state 4 respiration, isolated rat liver mitochondria", "value": "98 (13.2) % of control"}, {"measurement": "II-ADP, % of control (O2 consumption rate)", "setting": "[8]; 100 µM, succinate-driven state 3 respiration, isolated rat liver mitochondria", "value": "124 (83.8) % of control"}, {"measurement": "II-sub, % of control (O2 consumption rate)", "setting": "[8]; 100 µM, succinate-driven state 4 respiration, isolated rat liver mitochondria", "value": "107 (23.2) % of control"}, {"measurement": "Potential Mechanism", "setting": "[8]; mitochondrial respiration in isolated rat liver mitochondria, Clark type oxygen electrode, over tested concentrations", "value": "Inactive"}, {"measurement": "ATP (HepG2, glucose) IC50", "setting": "HepG2 cells [4]; 5 mM glucose", "value": "Inactive"}, {"measurement": "ATP (HepG2, galactose) IC50", "setting": "HepG2 cells [4]; 10 mM galactose", "value": "Inactive"}, {"measurement": "p53 (HCT-116) EC50", "setting": "[5]", "value": "Inactive"}, {"measurement": "Parkin recruitment", "setting": "[6]", "value": "Inactive"}, {"measurement": "LUM: mean difference in luminescence (ATP content) relative to plate controls", "setting": "[9]; 0.5 µM", "value": 0.5241}, {"measurement": "LUM: mean difference in luminescence (ATP content) relative to plate controls", "setting": "[9]; 1 µM", "value": 1.069}, {"measurement": "LUM: mean difference in luminescence (ATP content) relative to plate controls", "setting": "[9]; 5 µM", "value": 1.958}, {"measurement": "LUM: mean difference in luminescence (ATP content) relative to plate controls", "setting": "[9]; 10 µM", "value": 1.846}, {"measurement": "LUM: mean difference in luminescence (ATP content) relative to plate controls", "setting": "[9]; 25 µM", "value": 1.929}, {"measurement": "LUM: mean difference in luminescence (ATP content) relative to plate controls", "setting": "[9]; 50 µM", "value": 1.555}, {"measurement": "LUM: mean difference in luminescence (ATP content) relative to plate controls", "setting": "[9]; 75 µM", "value": 1.569}, {"measurement": "LUM: mean difference in luminescence (ATP content) relative to plate controls", "setting": "[9]; 100 µM", "value": 1.98}, {"measurement": "LEC (lowest effect concentration), ATP assay", "setting": "[9]; 24 h exposure", "value": "≤ 10", "unit": "µM"}, {"measurement": "minimal effective concentration", "setting": "[9]; Caenorhabditis elegans, read-out: LEC LUM: lowest effect concentration for luminescence, a measure of nematode ATP content", "value": 0.5, "unit": "µM"}, {"measurement": "EC50", "setting": "HepG2 cells [7]", "value": "4.72 ± 0.8", "unit": "µM"}, {"measurement": "MMP assays efficacy (%) qHTS-HepG2", "setting": "HepG2 cells [10]", "value": "-85±11", "unit": "%"}, {"measurement": "IC50", "setting": "HepG2 cells [10]; read-out: MMP assays IC50 (µM) qHTS-HepG2", "value": "0.51 ± 0.29", "unit": "µM"}]}
